Results as given in patent US20250205257A1 (priority 2022, published 2025).

What was measured:
[1] = tested on: recombinant ASFV genotype II Georgia virus, GeorgiaDMGFB; format: cell-based, African swine fever virus
in vivo = details: pig
in vitro = details: pig, CC50 (50% cytotoxic concentration)
[2] = tested on: ASFV strain Georgia 2007/1; details: pig, in vivo
[3] = tested on: ASFV strain Georgia 2007/1; details: pig, in vivo, po, 30 mg/kg
ASFV KAB6/2 = assay: microbe, parasite or virus in culture; format: cell-based; details: African swine fever virus, PBMC, 72 h, read-out: EC50 KAB6/2
ASFV BOT 1/99 = assay: microbe, parasite or virus in culture; format: cell-based; details: African swine fever virus, PBMC, 72 h, read-out: EC50 BOT P1/99
ASFV Georgia 2007/1 = assay: microbe, parasite or virus in culture; format: cell-based; details: African swine fever virus, PBMC, 72 h, read-out: EC50 Georgia 2007/1
ASFV Magadi w/hog 9 = assay: microbe, parasite or virus in culture; format: cell-based; details: African swine fever virus, PBMC, 72 h, read-out: EC50 Magadi w/hog 9
[4] = pig, in vivo
porcine kidney cells = details: pig

With `CC(C)(C)C(=O)OCOP1(=O)CO[C@@H](Cn2ccc(N)nc2=O)CO1` (stereo partly drawn) [Compound 1, Pivaloyloxymethyl ester of cHPMPC] the “efficacy compared to cHPMPC” value [1] was “intermediate”.
In the case of `CC(C)OC(=O)OCOP1(=O)CO[C@@H](Cn2ccc(N)nc2=O)CO1` (stereo partly drawn) [Compound 2, Isopropyloxycarbonyloxymethyl ester of cHPMPC], the “efficacy compared to cHPMPC” value [1] is reported as “intermediate”.
For `CCCCCCCCCCCCCCCCOCCCOP1(=O)CO[C@@H](Cn2ccc(N)nc2=O)CO1` (stereo partly drawn) [Compound 3, Hexadecyloxypropyl ester of cHPMPC], the “efficacy compared to cHPMPC” value [1] was “greatly increased efficacy” and the selectivity indices [1] was “thousands”.
For `CCCCCCCCCCCCCCCCCCOCCOP1(=O)CO[C@@H](Cn2ccc(N)nc2=O)CO1` (stereo partly drawn) [Compound 4, Octadecyloxyethyl ester of cHPMPC], the “efficacy compared to cHPMPC” value [1] was “greatly increased efficacy” and the selectivity indices [1] was “thousands”.
For `CC(C)OC(=O)[C@H](C)NP1(=O)CO[C@@H](Cn2ccc(N)nc2=O)CO1` (stereo partly drawn) [Compound 5, Isopropyl L-alaninyl cHPMPC], the “efficacy compared to cHPMPC” value [1] was “intermediate”.
`Nc1ccn(C[C@H]2COP(=O)(O)CO2)c(=O)n1` [cHPMPC, cyclic cidofovir] gave a half-life (in vivo; iv, 5 mg/kg) of 3.31 h, an AUC (in vivo; iv, 5 mg/kg, AUC, analyte VV03-0035) of 71.6 µM·h and an AUC (in vivo; iv, 5 mg/kg, exposure (AUC) of VV03-0035, range across pigs) of 58 to 95.4 µM·h. For the same compound, the half-life (in vivo; po, 25 mg/kg) was 3.51 h, the AUC (in vivo; po, 25 mg/kg, AUC, analyte VV03-0035) was 11.6 µM·h and the AUC (in vivo; po, 25 mg/kg, exposure (AUC) of VV03-0035, range across pigs) was 2.32 to 23.7 µM·h. For the same compound, the CC50 (in vitro) was 47000 nM, the “pigs survived until the end of the study (day 27 post ASFV challenge) with no ASF disease” value [2] was 2 pigs and the “ASFV genome copies in blood on termination days compared to control pigs” value ([2]; po, 30 mg/kg) was “reduced”. The “ASFV genome copies in swab samples on termination days compared to control pigs” value ([2]; po, 30 mg/kg) was “reduced”, the median survival ([2]; po, 30 mg/kg) was 19.5 days and the “pigs euthanized at moderate severity humane endpoint on day 6 showing reduced ASF disease” value ([2]; po, 30 mg/kg) was 2 pigs. For the same compound, the “pigs euthanized at moderate severity humane endpoint on day 19 and day 20 with delayed and reduced ASF disease” value ([2]; po, 30 mg/kg) was 2 pigs, the ASF viraemia [3] was “significantly reduced” and the “ASF viral genome copies in organs (lungs, spleens, lymph nodes) compared to placebo” value [3] was “significantly reduced”. The “median survival / median day of death” value [3] was 8 days, the EC50 (ASFV KAB6/2) was 590 ± 80 nM and the EC50 (ASFV BOT 1/99) was 300 ± 200 nM. The EC50 (ASFV Georgia 2007/1) was 310 ± 170 nM, the “concentration above which mNeon Green expression was not observed” value [1] was over 0.05 µM and the EC50 (ASFV Magadi w/hog 9) was 110 ± 50 nM. For the same compound, the other adverse events [4] was “No other adverse events were recorded”, the tolerability [4] was “well tolerated” and the “injection site observation 1 hour post intravenous dosing” value ([4]; iv, 5 mg/kg) was “redness at injection site was observed in all pigs”. For the same compound, the “injection site observation 4 hour post intravenous administration” value ([4]; iv, 5 mg/kg) was “no injection site reactions were observed” and the CC50 (porcine kidney cells) was 59000 nM.
